Assay results from patent US10722582B2, “Targeted antimicrobial photodynamic therapy” (Purdue Research Foundation, priority 2018, dated 2020).
Marks after values point to notes of the source that are not given here.

Columns and labels:
[1] = tested on: MRSA (USA200), clinical isolate NRS 383; experiment: aPDI with CFL irradiation (406 nm), planktonic bacteria, drop-plate colony count; type: cell-based, Staphylococcus aureus; details: for potency relative to dark toxicity (0 min exposure): 15 min CFL, 3-log reduction
Experimental: (§1) In all cases, we observed potent aPDI with bactericidal activities at 1-5 μM (Table 1). The consistent response to Ga-PpIX treatment is encouraging, as variable efficacy between strains is a known problem in antimicrobial photodynamic therapy (Nakonieczna, J. et al., Photodiagn. Photodyn. Ther. 2012, 9, 359-361). […] We note that PpIX is already approved as a photosensitizer for topical treatment of several skin diseases, but its utility is limited by poor photostability.
(§2) All bacterial strains were cultured at 37° C. in an aerobic atmosphere unless otherwise noted. […] Bacterial counts were estimated in units of cfu/mL by plating serial dilutions onto agar plates, followed by incubation for 16 hours at 37° C. Iron-challenged conditions were typically achieved by first growing the bacteria in standard (iron-replete) media (see Table 2), then harvesting and resuspending in media containing 3 mM 2,2′-bipyridine. Further details and variations on iron-deficient culture conditions are provided in Supporting Information.
(§3) A 20-W compact fluorescent lightbulb (CFL; Sunlite SL20/BLB) housed in an ellipsoidal reflector dome was used for aPDI, at an emission wavelength at 406 nm and a mean power density of 12.4 mW/cm^2 (after applying a 408-nm shortpass filter). Antimicrobial assays were performed on planktonic bacteria at 10^7 cfu/mL with variable exposure times to CFL irradiation, followed by plating on agar and incubation at 37° C. In a typical experiment, bacterial suspensions were transferred into 96-well plates then treated with 100-μL aliquots of Ga-PpIX or PpIX solution, with final concentrations ranging from 320 to 0.31 μg/mL, followed immediately with CFL irradiation for 5 to 15 minutes. The irradiated bacteria were plated onto agar in serial tenfold dilutions (10^7-10^1 cfu/mL); controls included one set of wells without photosensitizer, and one set of wells with photosensitizer but without 15 min irradiation, prior to plating (dark toxicity). Bacterial counts were determined by the drop-plate method using TS-agar plates, and reported in colony-forming units per milliliter (cfu/mL).
(§4) The irradiation source consisted of a 20-W compact fluorescent lightbulb (CFL; Sunlite SL20/BLB) housed in an ellipsoidal reflector dome. Emission spectra were measured with an Acton SpectraPro 2300i spectrometer (1200 gratings/inch), with major peaks at 406 and 438 nm and a minor peak at 548 nm (FIG. 10). Irradiance was measured with a handheld luminometer (Lux/FC HS1010A) positioned 4 cm from the CFL, yielding 91 lux or an average power density of 36.4 mW/cm^2; addition of a 425-nm or 408-nm shortpass filter yielded 31 lux or 12.4 mW/cm^2 corresponding with emission at 406 nm. The CFL produced only minor increases in temperature within the dome (28° C. after 15 min).

[2] = tested on: MRSA (USA500), clinical isolate NRS 385; experiment: as above; type: cell-based, Staphylococcus aureus; details: for potency relative to dark toxicity (0 min exposure): 15 min CFL, 3-log reduction
Experimental: as §1, §2, §3, §4

[3] = tested on: MRSA (USA700), clinical isolate NRS 386; experiment: as above; type: cell-based, Staphylococcus aureus; details: for potency relative to dark toxicity (0 min exposure): 15 min CFL, 3-log reduction
Experimental: as §1, §2, §3, §4

[4] = tested on: MRSA (USA800), clinical isolate NRS 387; experiment: as above; type: cell-based, Staphylococcus aureus; details: for potency relative to dark toxicity (0 min exposure): 15 min CFL, 3-log reduction
Experimental: as §1, §2, §3, §4

S. epidermis (ATCC 155) = experiment: as above; type: cell-based, Staphylococcus epidermidis; details: for potency relative to dark toxicity (0 min exposure): 15 min CFL, 3-log reduction
Experimental: All bacterial strains were cultured at 37° C. in an aerobic atmosphere unless otherwise noted. […] Bacterial counts were estimated in units of cfu/mL by plating serial dilutions onto agar plates, followed by incubation for 16 hours at 37° C. […] Further details and variations on iron-deficient culture conditions are provided in Supporting Information.
Antimicrobial assays were performed on planktonic bacteria at 10^7 cfu/mL with variable exposure times to CFL irradiation, followed by plating on agar and incubation at 37° C. […] The irradiated bacteria were plated onto agar in serial tenfold dilutions (10^7-10^1 cfu/mL); controls included one set of wells without photosensitizer, and one set of wells with photosensitizer but without 15 min irradiation, prior to plating (dark toxicity). Bacterial counts were determined by the drop-plate method using TS-agar plates, and reported in colony-forming units per milliliter (cfu/mL).
The irradiation source consisted of a 20-W compact fluorescent lightbulb (CFL; Sunlite SL20/BLB) housed in an ellipsoidal reflector dome.

S. aureus (PCI 1203) = experiment: Competitive hemin uptake assay (fluorescence microscopy); type: cell-based, Staphylococcus aureus; details: standard conditions (TS media); no background subtraction
[5] = 0 min (dark), no irradiation (dark toxicity)
[6] = 15 min CFL (11.2 J/cm^2), listed as GaPpIX (1)
[7] = 0 min (dark), no irradiation (dark toxicity), listed as Ga-
[8] = 15 min CFL (11.2 J/cm^2), listed as PpIX
[9] = 0 min (dark), no irradiation (dark toxicity), listed as PpIX

Compound | Antimicrobial activity (minimum 3-log CFU reduction) [1, 5] | Eradication (6 log reduction) ([1]; 15 min CFL (11.2 J/cm^2)) | potency relative to dark toxicity (0 min exposure) [1] | Eradication (6 log reduction) ([1]; No irradiation (dark toxicity)) | Antimicrobial activity (minimum 3-log CFU reduction) [2, 5] | Antimicrobial activity (minimum 3-log CFU reduction) ([2]; 15 min CFL (11.2 J/cm^2)) | Eradication (6 log reduction) ([2]; 15 min CFL (11.2 J/cm^2)) | potency relative to dark toxicity (0 min exposure) [2] | Eradication (6 log reduction) ([2]; No irradiation (dark toxicity)) | Antimicrobial activity (minimum 3-log CFU reduction) [3, 5] | Antimicrobial activity (minimum 3-log CFU reduction) ([3]; 15 min CFL (11.2 J/cm^2)) | Eradication (6 log reduction) ([3]; 15 min CFL (11.2 J/cm^2)) | potency relative to dark toxicity (0 min exposure) [3] | Eradication (6 log reduction) ([3]; No irradiation (dark toxicity)) | Antimicrobial activity (minimum 3-log CFU reduction) [4, 5] | Antimicrobial activity (minimum 3-log CFU reduction) ([4]; 15 min CFL (11.2 J/cm^2)) | Eradication (6 log reduction) ([4]; 15 min CFL (11.2 J/cm^2)) | potency relative to dark toxicity (0 min exposure) [4] | Eradication (6 log reduction) ([4]; No irradiation (dark toxicity)) | Antimicrobial activity (minimum 3-log CFU reduction) (S. epidermis (ATCC 155); [5]) | further results
Ga(III)-protoporphyrin [Ga-PpIX (1)] | 36.3 μM | 2.3 μM | 32x | 73 μM | >146 μM | 4.6 μM | 36.3 μM | >32x | >146 μM | >146 μM | 4.6 μM | 18.3 μM | >32x | >146 μM | 73 μM | 1.1 μM | 2.3 μM | 64x | 146 μM | 146 μM | Antimicrobial activity (minimum 3-log CFU reduction) ([1]; 15 min CFL (11.2 J/cm^2), listed as Ga-): 1.1^c μM; Antimicrobial activity (minimum 3-log CFU reduction) [1, 6]: 1.1 μM; Antimicrobial activity (minimum 3-log CFU reduction) [2, 7]: >146^d μM; Antimicrobial activity (minimum 3-log CFU reduction) [3, 7]: >146^d μM; Antimicrobial activity (minimum 3-log CFU reduction) (S. epidermis (ATCC 155); 15 min CFL (11.2 J/cm^2)): 0.57 μM; Eradication (6 log reduction) (S. epidermis (ATCC 155); 15 min CFL (11.2 J/cm^2), listed as Ga-PpIX): 1.1 μM; Eradication (6 log reduction) (S. epidermis (ATCC 155); [6]): 4.5 μM; potency relative to dark toxicity (0 min exposure) (S. epidermis (ATCC 155)): 256x; bactericidal activity (S. epidermis (ATCC 155); CFL irradiation, clinical isolate from a skin lesion): 570 nM; Eradication (6 log reduction) (S. epidermis (ATCC 155); No irradiation (dark toxicity)): 146 μM; Fluorescence after 15 min (S. aureus (PCI 1203)): 18.09 a.u.; Fluorescence after 15 min exposure + 1 equiv. hemin (S. aureus (PCI 1203)): 15.08 a.u.
C=CC1=C(C)c2cc3[nH]c(cc4nc(cc5[nH]c(cc1n2)c(C)c5CCC(=O)O)C(CCC(=O)O)=C4C)c(C)c3C=C [PpIX (2), PpIX, reference compound] | 36.3 μM | 4.6 μM | 32x | 146 μM | >146 μM | 18.3 μM | 36.3 μM | >8x | >146 μM | >146 μM | 36.3 μM | 73 μM | >4x | >146 μM | >146 μM | 9.1 μM | 18.3 μM | 16x | >146 μM | >146 μM | Antimicrobial activity (minimum 3-log CFU reduction) ([1]; 15 min CFL (11.2 J/cm^2)): 1.1 μM; Antimicrobial activity (minimum 3-log CFU reduction) [1, 8]: 1.1^c μM; Antimicrobial activity (minimum 3-log CFU reduction) [2, 9]: >146^d μM; Antimicrobial activity (minimum 3-log CFU reduction) [3, 9]: >146^d μM; Antimicrobial activity (minimum 3-log CFU reduction) [4, 9]: 146 μM; Antimicrobial activity (minimum 3-log CFU reduction) (S. epidermis (ATCC 155); [9]): >146^d μM; Antimicrobial activity (minimum 3-log CFU reduction) (S. epidermis (ATCC 155); 15 min CFL (11.2 J/cm^2)): 4.5 μM; Eradication (6 log reduction) (S. epidermis (ATCC 155); 15 min CFL (11.2 J/cm^2)): 9 μM; Antimicrobial activity (minimum 3-log CFU reduction) (S. epidermis (ATCC 155); [8]): 4.6 μM; potency relative to dark toxicity (0 min exposure) (S. epidermis (ATCC 155)): >32x; Eradication (6 log reduction) (S. epidermis (ATCC 155); No irradiation (dark toxicity)): >146 μM; Fluorescence after 15 min (S. aureus (PCI 1203)): 11.90 a.u.; Fluorescence after 15 min exposure + 1 equiv. hemin (S. aureus (PCI 1203)): 10.15 a.u.
